Laboratory results published in article PMC12392461, “Beyond Estrogenicity: A Comparative Assessment of Bisphenol A and Its Alternatives in In Vitro Assays Questions Safety of Replacements” (Environmental Science & Technology, 2025).
Read-outs that look alike come from different tables or passages of the source.

Tests used:
[1] = system: Antioxidant response element; assay: MitoOxTox: oxidative stress response in AREc32; conditions: for EC10, linear / logEC10: Bioassay ARE, dosing range all; for EC10, linear: linear model fit; for logEC10: log-logistic model fit
In short: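 ARE activity measured in MCF7-based AREc32 reporter cells, AhR in H4L7.5c2 CALUX cells, and neurotoxicity in SH-SY5Y cells differentiated with 10 µM retinoic acid. Viability was tracked by confluency imaging, or live–dead staining for SH-SY5Y. ARE benchmark was ECIR1.5; only concentrations below IC10 were used for EC10/ECIR1.5.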

H4IIe (AhR CALUX) = conditions: for IC10, linear transformed / IC10, linear / logIC10: Bioassay AhR, dosing range all; for IC10, linear transformed / IC10, linear / logIC10 / IC10, H4IIe, AhR: cytotoxicity; for IC10, linear: linear model fit; for logIC10: log-logistic model fit; for Toxic ratio (TR) TRAhR: against baseline cytotoxicity; for IC10, H4IIe, AhR: H4IIe (AhR assay cells)
In short: (§1)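 Confluency-based cytotoxicity (IncuCyte S3), 24 h exposure, 37 °C/5% CO₂. IC10 set the threshold for reporter data analysis.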

HEK293H (PPARγ) = conditions: for IC10, linear transformed / IC10, linear / logIC10: PPARγ bioassay cytotoxicity; for IC10, linear: linear model; for logIC10: log-logistic model; for Toxic ratio (TR) TRPPARγ: against baseline cytotoxicity; for IC10, HEK293, PPARγ: cytotoxicity, HEK293 (PPARγ assay cells)
In short: as §1

HEK293T (ERα) = conditions: for IC10, linear transformed / IC10, linear / logIC10: Bioassay ERα; for IC10, linear transformed / IC10, linear / logIC10 / IC10, HEK293, ERα: cytotoxicity; for IC10, linear: linear model fit; for logIC10: log-logistic model fit; for Toxic ratio (TR) TRERα: against baseline cytotoxicity; for IC10, HEK293, ERα: HEK293 (ERα assay cells)
In short: as §1

MCF7 (ARE/MMP) = conditions: for IC10, linear transformed / IC10, linear / logIC10: dosing range all; for Toxic ratio (TR) TRARE / Toxic ratio (TR) TRMMP: against baseline cytotoxicity; for Toxic ratio (TR) TRARE: ARE readout; for Toxic ratio (TR) TRMMP: MMP readout; for IC10, MCF7, ARE: MCF7, ARE readout; for IC10, MCF7, MMP: MCF7, MMP readout
In short: as §1

[2] = Bioassay ARE, cytotoxicity, linear model fit
[3] = Bioassay ARE, cytotoxicity, log-logistic model fit
[4] = MMP bioassay cytotoxicity, linear model
[5] = MMP bioassay cytotoxicity, log-logistic model
[6] = Arec32, read-out: EC10, linear transformed

Structure (SMILES)	EC10, linear [1]	logEC10 [1]	IC10, linear transformed (H4IIe (AhR CALUX))	IC10, linear (H4IIe (AhR CALUX))	logIC10 (H4IIe (AhR CALUX))	IC10, H4IIe, AhR (H4IIe (AhR CALUX))	IC10, linear transformed (HEK293H (PPARγ); dosing range all)	IC10, linear (HEK293H (PPARγ); dosing range all)	logIC10 (HEK293H (PPARγ); dosing range all)	IC10, HEK293, PPARγ (HEK293H (PPARγ))	IC10, linear (HEK293T (ERα); dosing range all)	logIC10 (HEK293T (ERα); dosing range all)	IC10, HEK293, ERα (HEK293T (ERα))	IC10, linear transformed (MCF7 (ARE/MMP); Bioassay ARE, cytotoxicity)	IC10, linear (MCF7 (ARE/MMP); [2])	logIC10 (MCF7 (ARE/MMP); [3])	IC10, linear transformed (MCF7 (ARE/MMP); MMP bioassay cytotoxicity)	IC10, linear (MCF7 (ARE/MMP); [4])	logIC10 (MCF7 (ARE/MMP); [5])	IC10, MCF7, ARE (MCF7 (ARE/MMP); cytotoxicity)	other results
CC(C)(c1ccc(O)c(-c2ccccc2)c1)c1ccc(O)c(-c2ccccc2)c1 [BPPH, 2,2-Bis(2-hydroxy-5-biphenylyl)propane]	no effect	no effect	1.81E-05	1.29E-05	-4.74	12.9 µM	4.34E-06	8.25E-06	-5.16	6.92 µM	no cytotoxicity	-5.08	8.3 µM	2.86E-06	5.76E-06	-5.54	7.75E-06	5.66E-06	-5.11	2.86 µM	Toxic ratio (TR) TRAhR (H4IIe (AhR CALUX)): 0.32; Toxic ratio (TR) TRPPARγ (HEK293H (PPARγ)): 0.15; IC10, linear transformed (HEK293T (ERα); dosing range all): 5.43E-06; Toxic ratio (TR) TRERα (HEK293T (ERα)): 0.13; Toxic ratio (TR) TRARE (MCF7 (ARE/MMP)): 1.43; Toxic ratio (TR) TRMMP (MCF7 (ARE/MMP)): 0.53; IC10, MCF7, MMP (MCF7 (ARE/MMP); cytotoxicity): 7.75 µM
C=CCOc1ccc(S(=O)(=O)c2ccc(O)cc2)cc1 [BPS-MAE, 4-[[4-(Allyloxy)phenyl]sulfonyl]phenol]	no effect	no effect	8.61E-05	8.24E-05	-4.07	82.4 µM	1.96E-05	9.34E-05	-4.24	57.5 µM	2.44E-04	-3.85	244 µM	3.86E-04	4.93E-04	-3.41	8.44E-04	1.02E-03	-3.07	386 µM	IC10, linear transformed (HEK293T (ERα); dosing range all): 6.22E-05; IC10, MCF7, MMP (MCF7 (ARE/MMP); cytotoxicity): 844 µM
O=S(=O)(c1ccc(O)cc1)c1ccc(OCc2ccccc2)cc1 [BPS-MPE, 4-[4-(benzyloxy)benzenesulfonyl]phenol]		no effect	5.80E-05	5.18E-05	-4.24	51.8 µM				134 µM	1.12E-04	-4.00	112 µM	7.91E-05	1.19E-04	-4.10	1.23E-04	1.88E-04	-3.91	79.1 µM	EC10 ([1]; Arec32, read-out: EC10, linear): 55.7 µM; EC10 [1, 6]: 133 µM; Toxic ratio (TR) TRAhR (H4IIe (AhR CALUX)): 0.68; IC10, linear transformed (HEK293H (PPARγ); dosing range high): 9.04E-06; IC10, linear (HEK293H (PPARγ); dosing range high): 1.34E-04; logIC10 (HEK293H (PPARγ); dosing range high): -3.96; IC10, linear transformed (HEK293H (PPARγ); dosing range low): 1.83E-05; IC10, linear (HEK293H (PPARγ); dosing range low): 1.11E-05; logIC10 (HEK293H (PPARγ); dosing range low): -5.06; Toxic ratio (TR) TRPPARγ (HEK293H (PPARγ)): 0.09; IC10, linear transformed (HEK293T (ERα); dosing range all): 3.17E-05; Toxic ratio (TR) TRERα (HEK293T (ERα)): 0.10; Toxic ratio (TR) TRARE (MCF7 (ARE/MMP)): 0.45; Toxic ratio (TR) TRMMP (MCF7 (ARE/MMP)): 0.29; IC10, MCF7, MMP (MCF7 (ARE/MMP); cytotoxicity): 123 µM
Oc1ccc(Sc2ccc(O)cc2)cc1 [BPT, 4,4'-Thiodiphenol]		masked by cytotoxicity	8.07E-05	5.00E-05	-4.09	50 µM	4.47E-06	2.13E-05	-4.76	17.4 µM	2.43E-05	-4.53	24.3 µM	1.75E-04	3.07E-04	-3.76	2.05E-04	2.97E-04	-3.69	175 µM	EC10 ([1]; Arec32, read-out: EC10, linear): 85.6 µM; EC10 [1, 6]: 1500 µM; IC10, linear transformed (HEK293T (ERα); dosing range all): 4.06E-05; IC10, MCF7, MMP (MCF7 (ARE/MMP); cytotoxicity): 205 µM
Cc1ccc(S(=O)(=O)NC(=O)Nc2ccc(Cc3ccc(NC(=O)NS(=O)(=O)c4ccc(C)cc4)cc3)cc2)cc1 [BTUM, 4,4'-Bis(p-tolylsulfonylureido)diphenylmethane]	no effect	no effect		no cytotoxicity	no cytotoxicity			4.34E-05	-4.51	31 µM	3.66E-05	no cytotoxicity			no cytotoxicity	no cytotoxicity		no cytotoxicity	no cytotoxicity		Toxic ratio (TR) TRPPARγ (HEK293H (PPARγ)): 0.91
COC(=O)C(c1ccc(O)cc1)c1ccc(O)cc1 [Bz, Methyl bis(4-hydroxyphenyl)acetate]	no effect	no effect	1.41E-04	1.09E-04	-3.85	109 µM	1.09E-04	3.71E-04	-3.55	282 µM			1010 µM	4.96E-04	3.89E-04	-3.30	3.45E-04	3.44E-04	-3.46	496 µM	EC10 [1, 6]: 2200 µM; Toxic ratio (TR) TRAhR (H4IIe (AhR CALUX)): 3.18; Toxic ratio (TR) TRPPARγ (HEK293H (PPARγ)): 0.92; IC10, linear transformed (HEK293T (ERα); dosing range high): 1.18E-04; IC10, linear (HEK293T (ERα); dosing range high): 1.01E-03; logIC10 (HEK293T (ERα); dosing range high): -3.63; IC10, linear (HEK293T (ERα); dosing range low): no cytotoxicity; logIC10 (HEK293T (ERα); dosing range low): no cytotoxicity; Toxic ratio (TR) TRERα (HEK293T (ERα)): 0.26; Toxic ratio (TR) TRARE (MCF7 (ARE/MMP)): 0.70
